Converted amounts (≈) assume the structure as drawn. Like-named read-outs stand apart in the source and are kept apart here.
Tests used:
[1] = tested on: bacteria, fungi and yeasts; details: general statement, no test described, cited from earlier work
Citrobacter freundii = assay: MIC agar dilution test, bacteria; format: cell-based; details: Citrobacter freundii (B); CASO agar buffered to pH 7; corrected for dilution effect of butyl polyglycol; read-out: Minimum inhibitory concentration (MIC)
Experimental: (§1) Below, the antimicrobial efficacy of isosorbide caprylate 1 in butyl polyglycol against bacteria, fungi and yeasts is examined. For the tests with bacteria, isosorbide caprylate 1 was diluted with butyl polyglycol and then, at 50° C., added to liquid CASO agar (casein-peptone agar) buffered to pH 7 (+1-0.2) in various concentrations (hereinbelow referred to as compositions B1, B2, etc.). For the tests with fungi and yeasts, isosorbide caprylate 1 was diluted with butyl polyglycol and then added to liquid Sabouraud 4% dextrose agar buffered to pH 5.6 (+1-0.2) in various concentrations (hereinbelow referred to as compositions PH1, PH2, etc.). The compositions B1, B2, etc. and PH1, PH2 etc. were each poured into Petri dishes and each inoculated with identical amounts of bacteria, fungi and yeasts. The minimum inhibitory concentration (MIC) is the concentration at which inhibition of the growth of the bacteria, fungi and yeasts in the compositions B1, B2, etc. and PH1, PH2, etc. occurs.
(§2) Analogously to the determination of the antimicrobial activity of isosorbide caprylate 1, the antimicrobial activity firstly of a mixture comprising 89.6% by weight of isosorbide dicaprylate and 9.4% by weight of isosorbide monocaprylate (remainder: 1% by weight) (hereinbelow referred to as “isosorbide dicaprylate”) and, secondly, pure isosorbide was determined in further test series.

Enterobacter aerogenes = assay: MIC agar dilution test, bacteria; format: cell-based; details: Klebsiella aerogenes; Enterobacter aerogenes (B); CASO agar buffered to pH 7; corrected for dilution effect of butyl polyglycol; read-out: Minimum inhibitory concentration (MIC)
Experimental: as §1, §2

Escherichia coli = assay: MIC agar dilution test, bacteria; format: cell-based; details: Escherichia coli (B); CASO agar buffered to pH 7; corrected for dilution effect of butyl polyglycol; read-out: Minimum inhibitory concentration (MIC)
Experimental: as §1, §2

Klebsiella pneumoniae = assay: MIC agar dilution test, bacteria; format: cell-based; details: Klebsiella pneumoniae (B); CASO agar buffered to pH 7; corrected for dilution effect of butyl polyglycol; read-out: Minimum inhibitory concentration (MIC)
Experimental: as §1, §2

Proteus vulgaris = assay: MIC agar dilution test, bacteria; format: cell-based; details: Proteus vulgaris (B); CASO agar buffered to pH 7; corrected for dilution effect of butyl polyglycol; read-out: Minimum inhibitory concentration (MIC)
Experimental: as §1, §2

Pseudomonas aeruginosa = assay: MIC agar dilution test, bacteria; format: cell-based; details: Pseudomonas aeruginosa (B); CASO agar buffered to pH 7; corrected for dilution effect of butyl polyglycol; read-out: Minimum inhibitory concentration (MIC)
Experimental: as §1, §2

Pseudomonas oleovorans = assay: MIC agar dilution test, bacteria; format: cell-based; details: Ectopseudomonas oleovorans; Pseudomonas oleovorans (B); CASO agar buffered to pH 7; corrected for dilution effect of butyl polyglycol; read-out: Minimum inhibitory concentration (MIC)
Experimental: as §1, §2

Staphylococcus aureus = assay: MIC agar dilution test, bacteria; format: cell-based; details: Staphylococcus aureus (B); CASO agar buffered to pH 7; corrected for dilution effect of butyl polyglycol; read-out: Minimum inhibitory concentration (MIC)
Experimental: as §1, §2

Candida albicans = assay: MIC agar dilution test, yeasts; format: cell-based; details: Candida albicans (Y); Sabouraud 4% dextrose agar buffered to pH 5.6; corrected for dilution effect of butyl polyglycol; read-out: Minimum inhibitory concentration (MIC)
Experimental: as §1, §2

Aspergillus brasiliensis = assay: MIC agar dilution test, fungi; format: cell-based; details: Aspergillus brasiliensis (F); Sabouraud 4% dextrose agar buffered to pH 5.6; corrected for dilution effect of butyl polyglycol; read-out: Minimum inhibitory concentration (MIC)
Experimental: as §1, §2

Aspergillus terreus = assay: MIC agar dilution test, fungi; format: cell-based; details: Aspergillus terreus (F); Sabouraud 4% dextrose agar buffered to pH 5.6; corrected for dilution effect of butyl polyglycol; read-out: Minimum inhibitory concentration (MIC)
Experimental: as §1, §2

Fusarium solani = assay: MIC agar dilution test, fungi; format: cell-based; details: Fusarium solani (F); Sabouraud 4% dextrose agar buffered to pH 5.6; corrected for dilution effect of butyl polyglycol; read-out: Minimum inhibitory concentration (MIC)
Experimental: as §1, §2

Penicillium funicolosium = assay: MIC agar dilution test, fungi; format: cell-based; details: Penicillium funicolosium (F); Sabouraud 4% dextrose agar buffered to pH 5.6; corrected for dilution effect of butyl polyglycol; read-out: Minimum inhibitory concentration (MIC)
Experimental: as §1, §2

Penicillium minioluteum = assay: MIC agar dilution test, fungi; format: cell-based; details: Talaromyces minioluteus; Penicillium minioluteum (F); Sabouraud 4% dextrose agar buffered to pH 5.6; corrected for dilution effect of butyl polyglycol; read-out: Minimum inhibitory concentration (MIC)
Experimental: as §1, §2

[2] = tested on: bacteria, fungi and yeasts; assay: Antimicrobial efficacy, overall statement; format: cell-based
Experimental: as §1, §2

Compound: CCCCCCCC(=O)O [caprylic acid]
- antimicrobial activity (in words) ([1]; at a pH of 6 or above): no antimicrobial activity
- antimicrobial activity (in words) [1]: antimicrobially effective

Compound: O[C@@H]1CO[C@H]2[C@@H]1OC[C@@H]2O [isosorbide]
- MIC (Citrobacter freundii): 10000 µg/mL (≈ 68.4 mM)
- MIC (Enterobacter aerogenes): 10000 µg/mL (≈ 68.4 mM)
- MIC (Escherichia coli): 10000 µg/mL (≈ 68.4 mM)
- MIC (Klebsiella pneumoniae): 10000 µg/mL (≈ 68.4 mM)
- MIC (Proteus vulgaris): 10000 µg/mL (≈ 68.4 mM)
- MIC (Pseudomonas aeruginosa): 10000 µg/mL (≈ 68.4 mM)
- MIC (Pseudomonas oleovorans): 10000 µg/mL (≈ 68.4 mM)
- MIC (Staphylococcus aureus): 10000 µg/mL (≈ 68.4 mM)
- MIC (Candida albicans): 10000 µg/mL (≈ 68.4 mM)
- MIC (Aspergillus brasiliensis): 10000 µg/mL (≈ 68.4 mM)
- MIC (Aspergillus terreus): 10000 µg/mL (≈ 68.4 mM)
- MIC (Fusarium solani): 10000 µg/mL (≈ 68.4 mM)
- MIC (Penicillium funicolosium): 10000 µg/mL (≈ 68.4 mM)
- MIC (Penicillium minioluteum): 10000 µg/mL (≈ 68.4 mM)
- antimicrobial activity (in words) ([2]; summary of MIC results of Tables 1 and 2): neither isosorbide nor isosorbide dicaprylate is antimicrobially active

Compound: isosorbide monocaprylate
- antimicrobial activity (in words) ([2]; concluded from activity of isosorbide caprylate 1 and inactivity of its other constituents, in particular as fungicide against fungi and yeasts): significant antimicrobial activity
